Assay [1] concerns SKBR3 (PI3Kα wild type) cells. In words: CellTiter-Glo 2.0 luminescent cell viability assay, 72 hours, SKBR3 cells. The format is cell-based. Conditions: Homo sapiens, SK-BR-3, 72 h, SKBR3 (PI3Kα wild type) cells, CellTiter-Glo, approximately 72 hours; read-out: SKBR3 (WT) Viability IC50. Summed up: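 Viability measured via CTG luminescence following roughly 72 hours of compound exposure at 37° C. Dosing used a 10 um starting concentration diluted 1:4 over 10 points; percent-of-vehicle data fitted with a variable-slope four-parameter model for IC50.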
In general terms: Cellular ATP, detected with luciferase, serves as a proxy for viable cell number.

For assay [2], the system named is T47D (PI3Kα H1047R mutant) cells. Nature of the assay: CellTiter-Glo 2.0 luminescent cell viability assay, 72 hours, T47D cells. The format is cell-based. Conditions: T47D (PI3Kα H1047R mutant) cells, CellTiter-Glo, approximately 72 hours, read-out: T47D (H1047R mutant) Viability IC50. Summed up:
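Viability was measured by CellTiter-Glo 2.0 luminescence after approximately 72 h of compound exposure at 37° C. Plating was 1000 cells per well the day before dosing, with ten 1:4 dilutions from a 10 µM top concentration. Values as percent of vehicle were fitted by variable-slope log(inhibitor) regression to give IC50.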

Data on 24 molecules can be found in patent US20260078120A1, “SUBSTITUTED PYRIDOPYRIMIDINONES” (MIRATI THERAPEUTICS, INC., priority 2022, published 2026).

Like-named read-outs stand apart in the source and are kept apart here.

With `Cc1cc(C(C)Nc2cccnc2C(=O)O)c2nc(N3CCCCC3)c(C)c(=O)n2c1` (stereo not drawn) [Example 11-356, 3-((1-(3,7-dimethyl-4-oxo-2-(piperidin-1-yl)-4H-pyrido[1,2-a]pyrimidin-9-yl)ethyl)amino)picolinic acid], the IC50 (usually the concentration that inhibits the measured activity by half) in assay [1] turned out to be 1200 nM; in assay [2] (Homo sapiens, T47D, 72 h) it was 532 nM.
Regarding `Cc1cc([C@@H](C)Nc2ccccc2C(=O)O)c2nc(N3C[C@H](F)C[C@H](F)C3)c(C#N)c(=O)n2c1` [Example 11-48, 2-(((R)-1-(3-cyano-2-((3R,5S)-3,5-difluoropiperidin-1-yl)-7-methyl-4-oxo-4H-pyrido[1,2-a]pyrimidin-9-yl)ethyl)amino)benzoic acid], the IC50 in assay [1] is over 10000 nM; in assay [2] (Homo sapiens, T47D, 72 h), 854 nM.
On to `C[C@@H](Nc1ccccc1C(=O)O)c1cc(C2CC2)cn2c(=O)c(C#N)c(N3CCC(F)(F)CC3)nc12` [Example 10-83, (R)-2-((1-(3-cyano-7-cyclopropyl-2-(4,4-difluoropiperidin-1-yl)-4-oxo-4H-pyrido[1,2-a]pyrimidin-9-yl)ethyl)amino)benzoic acid], for which the IC50 was over 10000 nM in assay [1] and 78.7 nM in assay [2] (Homo sapiens, T47D, 72 h).
Turning to `Cc1cc([C@@H](C)Nc2ccccc2C(=O)O)c2nc(N3CCN(c4cccc(C#N)c4)C[C@@H]3C)c(C#N)c(=O)n2c1` [Example 11-85, 2-(((R)-1-(3-cyano-2-((S)-4-(3-cyanophenyl)-2-methylpiperazin-1-yl)-7-methyl-4-oxo-4H-pyrido[1,2-a]pyrimidin-9-yl)ethyl)amino)benzoic acid], the concentration for half-maximal inhibition (IC50) in assay [1] was over 10000 nM; in assay [2] (Homo sapiens, T47D, 72 h) it was 404 nM.
On the same counts, the results for `Cc1cc([C@@H](C)Nc2ccccc2C(=O)O)c2nc(N3CCN(CC(F)F)CC3)c(C#N)c(=O)n2c1` [Example 11-42, (R)-2-((1-(3-cyano-2-(4-(2,2-difluoroethyl)piperazin-1-yl)-7-methyl-4-oxo-4H-pyrido[1,2-a]pyrimidin-9-yl)ethyl)amino)benzoic acid] are over 10000 nM and 172 nM.
`Cc1cc([C@@H](C)Nc2ccc(Cl)nc2C(=O)O)c2nc(N3Cc4nccnc4C3)c(C)c(=O)n2c1` [Example 11-139, (R)-6-chloro-3-((1-(2-(5,7-dihydro-6H-pyrrolo[3,4-b]pyrazin-6-yl)-3,7-dimethyl-4-oxo-4H-pyrido[1,2-a]pyrimidin-9-yl)ethyl)amino)picolinic acid]: the IC50 in assay [1] is over 10000 nM; in assay [2] (Homo sapiens, T47D, 72 h) it was 272 nM.
`CCOCC1CCN(c2nc3c([C@@H](C)Nc4ccccc4C(=O)O)cc(C)cn3c(=O)c2C)CC1` [Example 10-4, (R)-2-((1-(2-(4-(ethoxymethyl)piperidin-1-yl)-3,7-dimethyl-4-oxo-4H-pyrido[1,2-a]pyrimidin-9-yl)ethyl)amino)benzoic acid]: the IC50 was over 10000 nM in assay [1] and 12.3 nM in assay [2] (Homo sapiens, T47D, 72 h).
Take `Cc1cc([C@@H](C)Nc2ccccc2C(=O)O)c2nc(N[C@@H](C)C3CC3)c(C#N)c(=O)n2c1` [Example 11-164, 2-(((R)-1-(3-cyano-2-(((S)-1-cyclopropylethyl)amino)-7-methyl-4-oxo-4H-pyrido[1,2-a]pyrimidin-9-yl)ethyl)amino)benzoic acid]: the concentration for half-maximal inhibition (IC50) in assay [1] is over 10000 nM; in assay [2] (Homo sapiens, T47D, 72 h), 228 nM.
In the case of `Cc1cc([C@@H](C)Nc2ccccc2C(=O)O)c2nc(N3CCN(c4ccc(C#N)cc4)C(C)C3)c(C#N)c(=O)n2c1` (stereo partly drawn) [Example 11-271, 2-(((1R)-1-(3-cyano-2-(4-(4-cyanophenyl)-3-methylpiperazin-1-yl)-7-methyl-4-oxo-4H-pyrido[1,2-a]pyrimidin-9-yl)ethyl)amino)benzoic acid], the concentration for half-maximal inhibition (IC50) in assay [1] is 7100 nM; in assay [2] (Homo sapiens, T47D, 72 h), 118 nM.
Regarding `Cc1cc([C@@H](C)Nc2ccccc2C(=O)O)c2nc(C3CCN(C)CC3)c(C)c(=O)n2c1` [Example 11-149, (R)-2-((1-(3,7-dimethyl-2-(1-methylpiperidin-4-yl)-4-oxo-4H-pyrido[1,2-a]pyrimidin-9-yl)ethyl)amino)benzoic acid], the IC50 is over 10000 nM in assay [1] and over 10000 nM in assay [2] (Homo sapiens, T47D, 72 h).
In the case of `Cc1cc([C@@H](C)Nc2ccccc2C(=O)O)c2nc(N3CC(F)(F)C4(CC4)C3)c(C)c(=O)n2c1` [Example 11-61, (R)-2-((1-(2-(7,7-difluoro-5-azaspiro[2.4]heptan-5-yl)-3,7-dimethyl-4-oxo-4H-pyrido[1,2-a]pyrimidin-9-yl)ethyl)amino)benzoic acid], the IC50 in assay [1] was over 10000 nM; in assay [2] (Homo sapiens, T47D, 72 h) it was 145 nM.
Turning to `C[C@@H](Nc1ccccc1C(=O)O)c1cc(C2CC2)cn2c(=O)c(C#N)c(N3Cc4ccccc4C3)nc12` [Example 11-326, (R)-2-((1-(3-cyano-7-cyclopropyl-2-(isoindolin-2-yl)-4-oxo-4H-pyrido[1,2-a]pyrimidin-9-yl)ethyl)amino)benzoic acid], the IC50 in assay [1] is 3960 nM; in assay [2] (Homo sapiens, T47D, 72 h), 2580 nM.
Consider `C[C@@H](Nc1ccccc1C(=O)O)c1cc(C#N)cn2c(=O)cc(N3CCC(F)(F)CC3)nc12` [Example 11-418, (R)-2-((1-(7-cyano-2-(4,4-difluoropiperidin-1-yl)-4-oxo-4H-pyrido[1,2-a]pyrimidin-9-yl)ethyl)amino)benzoic acid], for which the IC50 is over 10000 nM in assay [1] and over 10000 nM in assay [2] (Homo sapiens, T47D, 72 h).
Consider `Cc1cc([C@@H](C)Nc2ccccc2C(=O)O)c2nc(N3Cc4nccnc4C3)c(C)c(=O)n2c1` [Example 11-138, (R)-2-((1-(2-(5,7-dihydro-6H-pyrrolo[3,4-b]pyrazin-6-yl)-3,7-dimethyl-4-oxo-4H-pyrido[1,2-a]pyrimidin-9-yl)ethyl)amino)benzoic acid], for which the IC50 in assay [1] was over 10000 nM; in assay [2] (Homo sapiens, T47D, 72 h), 392 nM.
Consider `Cc1cc(C(=O)NC2(CC(=O)O)CCC2)c2nc(N3CCCCC3)c(C#N)c(=O)n2c1` [Example 11-316, 2-(1-(3-cyano-7-methyl-4-oxo-2-(piperidin-1-yl)-4H-pyrido[1,2-a]pyrimidine-9-carboxamido)cyclobutyl)acetic acid], for which the IC50 was over 10000 nM in assay [1] and over 10000 nM in assay [2] (Homo sapiens, T47D, 72 h).
Consider `C[C@H](Nc1ccccc1C(=O)O)c1cc(C(F)F)cn2c(=O)c(C#N)c(N3CCC(F)(F)CC3)nc12` [Example 11-169, (S)-2-((1-(3-cyano-7-(difluoromethyl)-2-(4,4-difluoropiperidin-1-yl)-4-oxo-4H-pyrido[1,2-a]pyrimidin-9-yl)ethyl)amino)benzoic acid], for which the half-inhibitory concentration (IC50) in assay [1] was over 10000 nM; in assay [2] (Homo sapiens, T47D, 72 h) it was over 10000 nM.
Turning to `C[C@H](Nc1ccccc1C(=O)O)c1cccn2c(=O)cc(N3CCCCC3)nc12` [Example 11-423, (S)-2-((1-(4-oxo-2-(piperidin-1-yl)-4H-pyrido[1,2-a]pyrimidin-9-yl)ethyl)amino)benzoic acid], the IC50 is over 10000 nM in assay [1] and over 10000 nM in assay [2] (Homo sapiens, T47D, 72 h).
Consider `Cc1cc([C@@H](C)Nc2ccc(F)nc2C(=O)O)c2nc(N3Cc4ccccc4C3)c(C)c(=O)n2c1` [Example 11-351, (R)-6-fluoro-3-((1-(2-(isoindolin-2-yl)-3,7-dimethyl-4-oxo-4H-pyrido[1,2-a]pyrimidin-9-yl)ethyl)amino)picolinic acid], for which the figures for the IC50 in assay [1] and in assay [2] were over 10000 nM and 946 nM, respectively.
As for `Cc1cc([C@@H](C)Nc2ccccc2C(=O)O)c2nc(N3CCC(C4CCC4)CC3)c(C)c(=O)n2c1` [Example 11-20, (R)-2-((1-(2-(4-cyclobutylpiperidin-1-yl)-3,7-dimethyl-4-oxo-4H-pyrido[1,2-a]pyrimidin-9-yl)ethyl)amino)benzoic acid], the IC50 in assay [1] was over 10000 nM; in assay [2] (Homo sapiens, T47D, 72 h), 316 nM.
On the same counts, the results for `Cc1cc([C@@H](C)Nc2ccccc2C(=O)O)c2nc(N3CCC[C@H](C(F)(F)F)C3)c(C#N)c(=O)n2c1` [Example 11-210, 2-(((R)-1-(3-cyano-7-methyl-4-oxo-2-((S)-3-(trifluoromethyl)piperidin-1-yl)-4H-pyrido[1,2-a]pyrimidin-9-yl)ethyl)amino)benzoic acid] are over 10000 nM and 361 nM.
Turning to `Cc1cc([C@@H](C)Nc2ccnnc2C(=O)O)c2nc(N3CCC(F)(F)CC3)c(C#N)c(=O)n2c1` [Example 11-146, (R)-4-((1-(3-cyano-2-(4,4-difluoropiperidin-1-yl)-7-methyl-4-oxo-4H-pyrido[1,2-a]pyrimidin-9-yl)ethyl)amino)pyridazine-3-carboxylic acid], the IC50 was over 10000 nM in assay [1] and over 10000 nM in assay [2] (Homo sapiens, T47D, 72 h).
On to `Cc1cc([C@@H](C)Nc2ccccc2C(=O)O)c2nc(N3CCC4(CCC(=O)N4)C3)c(C#N)c(=O)n2c1` (stereo partly drawn) [Example 11-289, 2-(((1R)-1-(3-cyano-7-methyl-4-oxo-2-(2-oxo-1,7-diazaspiro[4.4]nonan-7-yl)-4H-pyrido[1,2-a]pyrimidin-9-yl)ethyl)amino)benzoic acid], for which the half-maximal inhibitory concentration (IC50) is over 10000 nM in assay [1] and 1870 nM in assay [2] (Homo sapiens, T47D, 72 h).
Consider `Cc1cc([C@@H](C)Nc2ccccc2C(=O)O)c2nc(N3CCC[C@H](C(F)(F)F)C3)c(C)c(=O)n2c1` [Example 11-212, 2-(((R)-1-(3,7-dimethyl-4-oxo-2-((S)-3-(trifluoromethyl)piperidin-1-yl)-4H-pyrido[1,2-a]pyrimidin-9-yl)ethyl)amino)benzoic acid], for which the IC50 in assay [1] is over 10000 nM; in assay [2] (Homo sapiens, T47D, 72 h) it was 1360 nM.
`Cc1cc(C(C)Nc2ccc(F)cc2C(=O)O)c2nc(N3Cc4ccccc4C3)c(C)c(=O)n2c1` (stereo not drawn) [Example 11-367, 5-fluoro-2-((1-(2-(isoindolin-2-yl)-3,7-dimethyl-4-oxo-4H-pyrido[1,2-a]pyrimidin-9-yl)ethyl)amino)benzoic acid]: the IC50 in assay [1] is over 10000 nM; in assay [2] (Homo sapiens, T47D, 72 h), 600 nM.
